Earlier results on two molecules are cited in US7534787B2, “Method of treating diseases and conditions associated with an altered level of amyloid beta peptides and new enolcarboxamide compounds” (Boehringer Ingelheim International GmbH, priority 2004, dated 2009).

The data set has as its system Aβ42. The conditions noted are these: according to table 3 of WO 01/78721.

With `CN1C(C(=O)Nc2ccccn2)=C(O)c2ccccc2S1(=O)=O` [piroxicam], the Aβ42 lowering activity result is reported as “do not lower or even increase the Aβ42 level”.

For the molecule `Cc1cc(NC(=O)C2=C(O)c3ccccc3S(=O)(=O)N2C)no1` [isoxicam], the Aβ42 lowering activity result is on record as “do not lower or even increase the Aβ42 level”.
